The text below walks through data of PubChem BioAssay (NCI).

Test systems include ACHN renal; CAKI-1 renal; COLO 205 colon; MOLT-4 leukemia; NCI-H522 lung; OVCAR-8 ovarian; SNB-75 CNS; UO-31 renal; SK-MEL-2 melanoma; M14 melanoma.
What all share (experiment): inhibition of tumour cell growth, NCI panel, 48 h

Each structure is given as a SMILES string.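 Protocol summary: plate cells (96-well), add compound at 5 concentrations, incubate 48 h, interpolate endpoints linearly. GI50 marks 50% less growth. TGI is the concentration that stops growth completely.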

As to `O=c1c2c3c(sc2nc2n1N=C(c1ccc([N+](=O)[O-])cc1)CS2)CCCC3`, the TGI in the test with ACHN renal, in the test on CAKI-1 renal, in the test on COLO 205 colon, with MOLT-4 leukemia, in the test with NCI-H522 lung and with OVCAR-8 ovarian was over 100 µM throughout. Moreover, the TGI in the test on SNB-75 CNS and in the test with UO-31 renal was over 100 µM in each case.

For `CCCCS(=O)CC(CO)NC(=O)/C=C/c1c(C)[nH]c(=O)[nH]c1=O` (configuration not stated), the TGI in the test on CAKI-1 renal is 114 µM; in the test with COLO 205 colon, 53.4 µM; in the test on MOLT-4 leukemia, 50 µM; in the test on NCI-H522 lung it was 21.4 µM; in the test on OVCAR-8 ovarian, 32.4 µM; in the test on SK-MEL-2 melanoma it was 23.4 µM. Also, the results for the TGI with SNB-75 CNS and with UO-31 renal were 30 µM and 73.3 µM, respectively.

Turning to `Nc1ccc(OCCCc2c(-c3ccccc3)nc(N)[nH]c2=O)cc1`, the TGI with ACHN renal, in the test with CAKI-1 renal, in the test with COLO 205 colon, in the test on M14 melanoma, in the test with MOLT-4 leukemia and in the test with NCI-H522 lung was over 100 µM each time. Also, the TGI in the test on OVCAR-8 ovarian, in the test with SNB-75 CNS and in the test with UO-31 renal was over 100 µM each time.

Consider `O=C1CSC(C(N=Nc2ccc(Cl)cc2)c2nc3ccccc3[nH]2)=N1` (configuration not stated), for which the TGI in the test on ACHN renal was over 100 µM; with CAKI-1 renal it was over 100 µM; in the test on COLO 205 colon it was over 100 µM; in the test with M14 melanoma it was over 100 µM; in the test with MOLT-4 leukemia, 39.8 µM; in the test with NCI-H522 lung, 71.1 µM. The TGI was over 100 µM in the test on OVCAR-8 ovarian, 41.8 µM in the test with SK-MEL-2 melanoma, 90.2 µM in the test with SNB-75 CNS and over 100 µM in the test on UO-31 renal.

Take `CC1=C/C(=C2/N=C(N(C)C)SS2)C(C)=N1`: the TGI in the test with ACHN renal, in the test with CAKI-1 renal, in the test on COLO 205 colon, in the test on M14 melanoma, in the test on MOLT-4 leukemia and in the test on NCI-H522 lung was over 100 µM throughout. Moreover, the TGI in the test with OVCAR-8 ovarian, in the test on SNB-75 CNS and in the test with UO-31 renal was over 100 µM throughout.

Regarding `Cc1cccc(C(=O)O)c1CC1NCCC2c3ccccc3NC12` (configuration not stated), the TGI in the test with ACHN renal, in the test with CAKI-1 renal, in the test on COLO 205 colon, in the test with M14 melanoma, in the test on MOLT-4 leukemia and in the test on NCI-H522 lung was over 100 µM in each case. Moreover, the TGI in the test on OVCAR-8 ovarian, with SK-MEL-2 melanoma, in the test on SNB-75 CNS and in the test on UO-31 renal was over 100 µM each time.

As to `Cc1nc2cccc([N+](=O)[O-])c2n1CCCN(C)C`, the TGI in the test with ACHN renal, in the test on CAKI-1 renal, in the test on COLO 205 colon, in the test with M14 melanoma, with NCI-H522 lung and with OVCAR-8 ovarian was over 100 µM in each case. Also, the TGI in the test with SK-MEL-2 melanoma, in the test with SNB-75 CNS and in the test on UO-31 renal was over 100 µM throughout.

With `C[N+](C)(C)C(C1=CCCC1=O)c1ccccc1` (configuration not stated), the TGI is 64.3 µM in the test with ACHN renal; 63.9 µM in the test with CAKI-1 renal; over 100 µM with COLO 205 colon; over 100 µM in the test on M14 melanoma; 58.3 µM in the test on MOLT-4 leukemia; 35 µM with NCI-H522 lung. In addition, the TGI in the test on OVCAR-8 ovarian was 65.6 µM; in the test with SK-MEL-2 melanoma, over 100 µM; in the test on SNB-75 CNS, over 100 µM; with UO-31 renal, over 100 µM.

Take `CNc1nc2c(C)ccc3[nH]c(N(C)C)nc3c-2n1`: the TGI is 76.8 µM with ACHN renal; over 100 µM in the test on CAKI-1 renal; over 100 µM in the test with COLO 205 colon; 51.1 µM in the test with M14 melanoma; over 100 µM with MOLT-4 leukemia; over 100 µM with NCI-H522 lung. The TGI with OVCAR-8 ovarian, in the test on SK-MEL-2 melanoma, with SNB-75 CNS and in the test on UO-31 renal was over 100 µM each time.

With `CN=C(NC)N(C)c1nc(=[N+](C)C)ss1`, the TGI in the test with ACHN renal is over 100 µM; in the test on CAKI-1 renal, 98.3 µM; in the test on M14 melanoma, over 100 µM; with MOLT-4 leukemia it was over 100 µM; with NCI-H522 lung it was over 100 µM; with OVCAR-8 ovarian it was over 100 µM. For the same compound, the TGI in the test on SK-MEL-2 melanoma and in the test on UO-31 renal was over 100 µM throughout.

`Cc1cc2c(C(C)C)c(O)c(O)c(C=Nc3ccccc3)c2c(O)c1-c1c(C)cc2c(C(C)C)c(O)c(O)c(C=Nc3ccccc3)c2c1O`: the TGI with ACHN renal, with CAKI-1 renal, in the test on COLO 205 colon, in the test on M14 melanoma, in the test with MOLT-4 leukemia and in the test with NCI-H522 lung was over 100 µM in each case. For the same compound, the TGI in the test with OVCAR-8 ovarian, with SK-MEL-2 melanoma, in the test with SNB-75 CNS and in the test with UO-31 renal was over 100 µM in each case.

`O=C1CCCN1CCCN=c1cc2n(-c3ccc(Cl)cc3)c3ccccc3nc-2cc1Nc1ccc(Cl)cc1`: the TGI in the test on CAKI-1 renal was over 100 µM; in the test with COLO 205 colon, 2.83 µM; in the test on MOLT-4 leukemia, 27 µM; in the test with NCI-H522 lung it was 16.6 µM; in the test on OVCAR-8 ovarian it was 53.2 µM; in the test on SK-MEL-2 melanoma, 30.7 µM. Also, the TGI in the test with SNB-75 CNS is 97.5 µM; in the test with UO-31 renal, 51.3 µM.

In the case of `CCc1c(C)c2ccc(OCC(=O)N=Nc3c(O)[nH]c4ccccc34)c(C)c2oc1=O`, the GI50 was over 33.3 µM in the test with ACHN renal; over 33.3 µM with CAKI-1 renal; 1.15 µM in the test on MOLT-4 leukemia; 0.77 µM in the test on NCI-H522 lung; over 33.3 µM in the test with SK-MEL-2 melanoma; over 33.3 µM in the test on UO-31 renal. The TGI with ACHN renal is over 33.3 µM; with CAKI-1 renal, over 33.3 µM; in the test on MOLT-4 leukemia, over 33.3 µM; with NCI-H522 lung, 1.81 µM; in the test with SK-MEL-2 melanoma, over 33.3 µM; in the test on UO-31 renal, over 33.3 µM.

Take `COC(=O)C1C(O)C(C)C(O)OC1C(C)C(O)C(C)/C=C\C=C(/C)C(=O)Nc1c(C)c(OC(C)=O)c2c(c1O)C(=O)C(C)=C1OCOC(/C(C)=C/C(C)=O)=C12` (configuration not stated): the TGI amounted to 34 µM with CAKI-1 renal; 20.6 µM in the test with COLO 205 colon; 33.3 µM with MOLT-4 leukemia; 7.74 µM in the test on NCI-H522 lung; 30.7 µM in the test on OVCAR-8 ovarian; 20.9 µM in the test with SK-MEL-2 melanoma. In addition, the values for the TGI in the test on SNB-75 CNS and in the test with UO-31 renal were 29.1 µM and 25.1 µM, respectively.

`CC(C)[C@](O)(C(=O)OCC1=CCN2CC[C@@H](O)[C@@H]12)[C@H](C)O`: the TGI with CAKI-1 renal, in the test on COLO 205 colon, with MOLT-4 leukemia, with NCI-H522 lung, with OVCAR-8 ovarian and in the test on SK-MEL-2 melanoma was over 375 µM in each case. The TGI with SNB-75 CNS and with UO-31 renal was over 375 µM each time.

Regarding `C[C@]12CCc3sc(-c4cccc(F)c4)nc3C1=CC[C@@H]1[C@@H]2CC[C@]2(C)C(=O)CC[C@@H]12`, the GI50 in the test on ACHN renal was 1.64 µM; in the test on CAKI-1 renal it was 1.87 µM; in the test on COLO 205 colon, 2.42 µM; with M14 melanoma, 6.62 µM; in the test with MOLT-4 leukemia it was 1.69 µM; in the test with NCI-H522 lung it was 2.4 µM. Also, the GI50 is 3.45 µM in the test on OVCAR-8 ovarian, 2.74 µM in the test with SK-MEL-2 melanoma, 3.43 µM in the test with SNB-75 CNS and 1.61 µM in the test on UO-31 renal. Moreover, the TGI in the test with ACHN renal is 3.01 µM; in the test on CAKI-1 renal, 3.76 µM; in the test with COLO 205 colon, 5.46 µM; in the test with M14 melanoma, over 100 µM; with MOLT-4 leukemia, 7.89 µM; in the test on NCI-H522 lung it was 6.35 µM. Besides, the TGI in the test on OVCAR-8 ovarian was over 100 µM; in the test on SK-MEL-2 melanoma, 10.7 µM; with SNB-75 CNS it was over 100 µM; in the test with UO-31 renal, 2.98 µM.

For `CCN(CC)CCNC(=O)c1nn(-c2ccc(Cl)cc2)c2c1CCc1cc(OC)ccc1-2`, the TGI in the test on ACHN renal is 23.7 µM; in the test with CAKI-1 renal it was 19.9 µM; in the test on COLO 205 colon it was 6.42 µM; in the test on M14 melanoma, 5.86 µM; with MOLT-4 leukemia, 28.5 µM; in the test with NCI-H522 lung, 11 µM. Moreover, the TGI in the test with OVCAR-8 ovarian is 28.2 µM; in the test on SK-MEL-2 melanoma it was 3.18 µM; with SNB-75 CNS, 14.5 µM; in the test on UO-31 renal it was 9.24 µM.
